# Results reported in patent US6750228B1, “Aromatic sulfone hydroxamic acid metalloprotease inhibitor” (priority 1997, dated 2004).
# Where a name gives a salt, the structure may show the parent alone. Read-outs that look alike come from different tables or passages of the source.
# Tests used:
# Test in all cases: biochemical
# MMP-1 = biological target: T1, MMP-1 (Homo sapiens, UniProt P03956); conditions: read-out: MMP-1 IC50
# T1 construct: made in house; host or cells: transfected HT-1080 cells (provided by Dr. Harold Welgus, Washington University)
# T1 sequence (P03956 100-469): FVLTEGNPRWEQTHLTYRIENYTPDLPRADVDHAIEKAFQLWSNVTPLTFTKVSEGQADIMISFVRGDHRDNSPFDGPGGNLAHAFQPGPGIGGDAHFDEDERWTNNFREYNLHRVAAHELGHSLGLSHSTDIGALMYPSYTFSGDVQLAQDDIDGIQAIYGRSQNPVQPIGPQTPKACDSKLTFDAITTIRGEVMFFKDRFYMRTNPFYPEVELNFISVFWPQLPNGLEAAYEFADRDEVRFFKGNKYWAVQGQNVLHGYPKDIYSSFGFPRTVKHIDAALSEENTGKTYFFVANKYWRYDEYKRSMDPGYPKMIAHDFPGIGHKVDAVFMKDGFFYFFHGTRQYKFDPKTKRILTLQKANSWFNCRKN
# Summary of the method: (§1)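 Assay buffer 100 mM Tris-HCl, 100 mM NaCl, 10 mM CaCl2, pH 7.5. Activated MMP + inhibitor, 5 min RT; then methoxycoumarin peptide substrate, 4 μM final. Readout fluorescence; IC50 calculated.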
# MMP-2 = biological target: T2, MMP-2 (Homo sapiens, UniProt P08253); conditions: read-out: MMP-2 IC50
# T2 construct: made in house; provided by Dr. Gregory Goldberg, Washington University
# T2 sequence (P08253 110-660): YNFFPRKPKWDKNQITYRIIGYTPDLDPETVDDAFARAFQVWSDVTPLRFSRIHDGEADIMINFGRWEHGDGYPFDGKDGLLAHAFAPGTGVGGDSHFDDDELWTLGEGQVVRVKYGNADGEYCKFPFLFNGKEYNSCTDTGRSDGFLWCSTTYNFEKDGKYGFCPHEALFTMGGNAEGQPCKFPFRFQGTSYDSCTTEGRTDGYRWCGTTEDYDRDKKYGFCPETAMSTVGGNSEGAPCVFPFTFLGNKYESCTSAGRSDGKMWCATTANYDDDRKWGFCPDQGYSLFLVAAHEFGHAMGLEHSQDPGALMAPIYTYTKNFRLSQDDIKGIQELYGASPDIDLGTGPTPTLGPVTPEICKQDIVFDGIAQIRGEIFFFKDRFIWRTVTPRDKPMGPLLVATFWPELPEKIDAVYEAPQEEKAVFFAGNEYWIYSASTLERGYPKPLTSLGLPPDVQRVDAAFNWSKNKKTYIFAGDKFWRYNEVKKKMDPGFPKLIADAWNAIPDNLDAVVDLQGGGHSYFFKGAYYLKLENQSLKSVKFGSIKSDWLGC
# Summary of the method: as §1
# MMP-13 = biological target: T3, MMP-13 (Homo sapiens, UniProt P45452); conditions: read-out: MMP-13 IC50
# T3 construct: made in house; host or cells: baculovirus / insect cells
# Summary of the method: as §1
# [1] = recombinant human MMP-1, MCA peptide substrate 4 μM, pH 7.5, room temperature
# [2] = recombinant human MMP-2, MCA peptide substrate 4 μM, pH 7.5, room temperature
# [3] = recombinant human MMP-13, MCA peptide substrate 4 μM, pH 7.5, room temperature
SMILES,IC50 (MMP-1; [1]) [nM],IC50 (MMP-2; [2]) [nM],IC50 (MMP-13; [3]) [nM],IC50 (MMP-1) [nM],IC50 (MMP-2) [nM],IC50 (MMP-13) [nM]
COCCc1ccc(OC2CCN(c3ccc(S(=O)(=O)C4(C(=O)NO)CCOCC4)cc3)CC2)cc1 [Example 643],6000,1.2,1.8,,,
CCOc1ccccc1N1CCN(C(=O)C2CCN(c3ccc(S(=O)(=O)C4(C(=O)NO)CCOCC4)cc3)CC2)CC1 [Example 24],,,,> 10000,4500,23.5
O=C(CNCc1ccccn1)N1CCC(C(=O)NO)(S(=O)(=O)c2ccc(Oc3ccc(C(F)(F)F)cc3)cc2)CC1 [Example 320],> 10000,4,12.1,,,
O=C(NO)C1(S(=O)(=O)c2ccc(Oc3ccc(C(F)(F)F)cc3)cc2)CCN(c2ccccn2)CC1 [Example 395],> 10000,0.5,0.9,,,
Cc1ccc(S(=O)(=O)N2CCN(c3ccc(S(=O)(=O)C4(C(=O)NO)CCOCC4)cc3)CC2)cc1 [Example 674],> 10000,110,8,,,
CN1CCCN(c2ccc(S(=O)(=O)C3(C(=O)NO)CCOCC3)cc2)CC1 [Example 213],> 10000,2700,1400,,,
CN(C)CCN(C)CCCCC(=O)N1CCC(C(=O)NO)(S(=O)(=O)c2ccc(Oc3ccc(C(F)(F)F)cc3)cc2)CC1 [Example 338],> 10000,0.2,1.9,,,
O=C(NO)C1(S(=O)(=O)c2ccc(OC3CCC(OCc4cccc(Cl)c4)C3)cc2)CCOCC1 (stereo not drawn) [Example 668],> 10000,25.8,2,,,
O=C(NO)C1(S(=O)(=O)c2ccc(N3CCC(Oc4ccc([N+](=O)[O-])cc4C(F)(F)F)CC3)cc2)CCOCC1 [Example 481],> 10000,1400,50,,,
CC1CC(C)CN(C(=O)C2CCN(c3ccc(S(=O)(=O)C4(C(=O)NO)CCN(C(=O)CNCc5ccccn5)CC4)cc3)CC2)C1 (stereo not drawn) [Example 284],> 10000,> 10000,130,,,
CC1CC(C)CN(C(=O)C2CCN(c3ccc(S(=O)(=O)C4(C(=O)NO)CCN(C(=O)CNCc5cccnc5)CC4)cc3)CC2)C1 (stereo not drawn) [Example 278],> 10000,> 10000,19.3,,,
O=C(C1CCN(c2ccc(S(=O)(=O)C3(C(=O)NO)CCOCC3)cc2)CC1)N1CCC(CO)CC1 [Example 44],,,,> 10000,1050,19
Nc1ccc(OC2CCN(c3ccc(S(=O)(=O)C4(C(=O)NO)CCOCC4)cc3)CC2)cc1 [Example 553],> 10000,50,12.8,,,
O=C(c1ccc2ccccc2c1)C1CCN(c2ccc(S(=O)(=O)C3(C(=O)NO)CCN(C4CC4)CC3)cc2)CC1 [Example 393],> 10000,427,4.5,,,
O=C(c1ccc(OC(F)(F)F)cc1)C1CCN(c2ccc(S(=O)(=O)C3(C(=O)NO)CCOCC3)cc2)CC1 [Example 726],> 10000,250,15.8,,,
COCCNCC(=O)N1CCC(C(=O)NO)(S(=O)(=O)c2ccc(N3CCC(C(=O)N4CC(C)CC(C)C4)CC3)cc2)CC1 (stereo not drawn) [Example 309],> 10000,> 10000,48.5,,,

SMILES,IC50 (MMP-1; [1]) [nM],IC50 (MMP-2; [2]) [nM],IC50 (MMP-13; [3]) [nM],IC50 (MMP-1) [nM],IC50 (MMP-2) [nM],IC50 (MMP-13) [nM]
O=C(NO)C1(S(=O)(=O)c2ccc(N3CCC(OCc4ccc(F)c(C(F)(F)F)c4)CC3)cc2)CCN(C2CC2)CC1 [Example 408],> 10000,800,25.1,,,
"COCCN1CCC(C(=O)NO)(S(=O)(=O)c2ccc(Oc3ccc(-n4cncn4)cc3)cc2)CC1 [Example 262, N-Hydroxy-1-(2-methoxyethyl)-4-[[4-[4-(1H-1,2,4-triazol-1-yl)phenoxy]phenyl]sulfonyl]-4-piperidinecarboxamide Trihydrochloride]",> 10000,0.9,1.5,,,
O=C(NO)C1(S(=O)(=O)c2ccc(N3CCN(C4CCCCC4)CC3)cc2)CCOCC1 [Example 489],> 10000,1900,770,,,
O=C(NO)C1(S(=O)(=O)c2ccc(N3CCC(OCc4ccc(COCCF)cc4)CC3)cc2)CCOCC1 [Example 606],> 10000,77,3,,,
C=Cc1ccc(C(=O)C2CCN(c3ccc(S(=O)(=O)C4(C(=O)NO)CCOCC4)cc3)CC2)cc1 [Example 787],> 10000,175,1.2,,,
Cc1ccc(OC2CCN(c3ccc(S(=O)(=O)C4(C(=O)NO)CCOCC4)cc3)CC2)cc1 [Example 619],> 10000,5.7,4.3,,,
O=C(CNCC(F)(F)F)N1CCC(C(=O)NO)(S(=O)(=O)c2ccc(Oc3ccc(C(F)(F)F)cc3)cc2)CC1 [Example 322],> 10000,0.3,0.3,,,
O=C(CN1CCCCC1)N1CCC(C(=O)NO)(S(=O)(=O)c2ccc(Oc3ccc(C(F)(F)F)cc3)cc2)CC1 [Example 318],> 10000,0.1,0.3,,,
CCN1CCN(c2ccc(S(=O)(=O)C3(C(=O)NO)CCOCC3)cc2)CC1 [Example 622],> 10000,1600,500,,,
CN(C)c1ccc(C(=O)C2CCN(c3ccc(S(=O)(=O)C4(C(=O)NO)CCOCC4)cc3)CC2)cc1 [Example 784],> 10000,4500,6,,,
CC1CC(C)CN(C(=O)C2CCN(c3ccc(S(=O)(=O)C4(C(=O)NO)CCN(C(=O)CNCCN(C)C)CC4)cc3)CC2)C1 (stereo not drawn) [Example 289],> 10000,> 10000,50,,,
O=C(NO)C1(S(=O)(=O)c2ccc(N3CCC(OCc4ccc(F)c(F)c4)CC3)cc2)CCOCC1 [Example 179],> 10000,170,20.6,,,
CCCCOC1CCN(c2ccc(S(=O)(=O)C3(C(=O)NO)CCN(C4CC4)CC3)cc2)CC1 [Example 440],> 10000,240,26.8,,,
CC1CC(C)CN(C(=O)C2CCN(c3ccc(S(=O)(=O)C4(C(=O)NO)CCN(C(=O)CN5CCOCC5)CC4)cc3)CC2)C1 (stereo not drawn) [Example 283],> 10000,> 10000,13.8,,,
O=C(NO)C1(S(=O)(=O)c2ccc(N3CCN(c4ccc(Cl)cc4)CC3)cc2)CCOCC1 [Example 659],> 10000,3.7,1,,,
CC1CN(c2ccc(S(=O)(=O)C3(C(=O)NO)CCOCC3)cc2)CCC1OCc1ccc(F)cc1 (stereo not drawn) [Example 582],> 10000,1800,30,,,
